From patent US6369212B1, “Cytochrome P450 gene highly expressed in the incompatible interaction” (Korea Kumbo Petrochemical Co., Ltd., priority 2000, dated 2002) come the findings set out here.

The test system of this test is PepCYP mRNA. Kind of test: RNA gel blot analysis of PepCYP expression in pepper fruits drop-applied with ABA or JA. Further details: species or system pepper (Capsicum annuum). How it is done: Both ripe-red and unripe-mature-green fruits of pepper cv Nokkwang were grown and harvested under greenhouse conditions. For wound treatments, five healthy ripe and unripe fruits were deeply scratched with a knife and incubated at 100% relative humidity at 27° C. in the dark. Ten μl of ABA at 4 and 40 μM, or JA at 4 and 40 μM were drop-applied to both ripe and unripe sets of five fruits, respectively. After incubation under the conditions described above, the fruits were excised to 1 cm^2 at the drop-application site for the fungus, ABA or JA, and at the wounding site. The samples were then frozen in liquid nitrogen. Leaf, root, and stem samples were harvested from 3-week-old plants and handled as described above for fungal inoculation and wounding.
Total RNA (10 μg/lane) from each plant tissue used in this study was separated on 1.2% denaturing agarose gels in the presence of formaldehyde. RNA gel-blotting, hybridization and washing were conducted as described by the manufacturer of the positively charged nylon membrane employed (Hybond N^+; Amersham Pharmacia Biotech). Radiolabeled probes were prepared with [α-^32P]dCTP (Amersham Pharmacia Biotech) using a random primer-labeling kit (Boehringer, Mannheim, Germany).
Jasmonic acid (JA) is a plant hormone with roles in mechanical wounding responses (Creelman et al. 1992; Creelman and Mullet 1997). ABA is hypothesized to be a key component in wound-signaling cascade leading to the activation of a defense gene (Pena-Cortés et al. 1996; Wasternack and Partheir 1997). Thus, we further examined whether the wound-inducible PepCYP expression is inducible by ABA or JA treatments. RNA gel blot analysis was performed with total RNAs prepared from the application sites of both ripe and unripe fruits drop-applied with ABA or JA for 24 h.

Turning to `CC1=CC(=O)CC(C)(C)[C@@]1(O)/C=C/C(C)=C\C(=O)O` [ABA, abscisic acid], the “expression of PepCYP” value (both ripe and unripe fruits, 4 and 40 μM drop-applied, 24 h) is listed as “did not affect”. In the case of `CC/C=C\C[C@H]1C(=O)CC[C@@H]1CC(=O)O` [JA, Jasmonic acid], where the note is “ripe fruit, 40 μM drop-applied, 24 h”, the “accumulation of PepCYP mRNA” value is “highly accumulated”. The “induction of PepCYP expression” value (unripe fruit, 100, 400 and 1000 μM (data not shown)) is “No induction”.
